{
  "source": "patent US20110118337A1",
  "about": "“Method of Using Compositions Comprising MIR-192 and/or MIR-215 for the Treatment of Cancer” (Merck Sharp & Dohme Corp., priority 2008, published 2011)",
  "key": {"HCT116DICER^ex5 cells [1]": {"test_system": "HCT116DICER^ex5 cells", "test": "Cell cycle FACS screen of pools of three siRNAs per gene (G1 after nocodazole, G2/M after aphidicolin)", "assay_type": "cell-based, human", "settings": "pools of 3 siRNAs/gene at 100 nM final, FACS 66 hours post-transfection, average of two experiments", "excerpt": "To identify targets whose modulation influences the cell cycle arrest phenotype observed with miR-192 expression, the 62 candidate genes identified as described in Example 2 and shown in TABLE 3 were silenced individually by transfecting a pool of 3 gene-specific siRNA duplexes per gene (each directed to a different region of the gene) into HCT116DICER^ex5 cells. The siRNA duplex sequences (3 duplexes per gene) used to target each of the 62 genes are shown below in TABLE 5. The siRNA duplex oligonucleotides were obtained from Sigma-Genesys, as described in Linsley, P. S. et al., Mol Cell Biol 27:2240-2252 (2007).\nHCT116DICER^ex5 cells were transiently transfected with pools of three different siRNA duplexes per gene at a 100 nM final concentration using Lipofectamine RNAiMax (Invitrogen), according to the manufacturer's instructions. At 48 hours post transfection, cells were left untreated, treated with nocodazole (100 ng/mL, Sigma-Aldrich), or treated with aphidicolin (2 μg/mL, Sigma-Aldrich) for an additional 18 hours before harvesting. The cells transfected with the siRNA pools were then screened by FACS analysis as described in Example 3 for the percentage of cells arrested in G1 or G2/M as compared to the negative siRNA luciferase control.\nThe siRNA pools tested in this screen were ranked according to the percentage of cells arrested in G1 or G2/M following transfection, as compared with a negative control siRNA targeting luciferase. To avoid being misled by possible RNAi off-target effects, the siRNA pools were deconvoluted to identify genes for which at least 2 different siRNA duplexes from the pool caused the cell cycle arrest phenotype (data not shown).\nTABLE 6 summarizes the data obtained 66 hours post-transfection by FACS analysis showing the cell cycle distribution of the HCT116DICER^ex5 cells transfected with siRNA pools of 3 siRNAs/gene. Each pool was analyzed in two separate experiments, and the average percentage of the cells trapped in G1 (following nocodazole treatment), or G2/M (following aphidicolin treatment) are shown in TABLE 6."}, "HCT116DICER^ex5 cells [2]": {"test_system": "HCT116DICER^ex5 cells", "test": "Transfection of siRNA pools (G1 or G2 gene set) at suboptimal levels, cell cycle FACS analysis (nocodazole or aphidicolin)", "assay_type": "cell-based, human", "settings": "100 nM, 66 hours post transfection", "method": "[…] At 48 hours post-transfection into HCT116DICER^ex5 cells, the cells were treated with nocodazole for an additional 18 hours prior to FACS analysis.\n[…] At 48 hours post-transfection into HCT116DICER^ex5 cells, the cells were treated with aphidicolin for an additional 18 hours prior to FACS analysis."}, "HCT116DICER^ex5 cells [3]": {"test_system": "HCT116DICER^ex5 cells", "test": "Cell cycle FACS analysis of siRNAs against top G1 and G2 arrest genes (nocodazole or aphidicolin)", "assay_type": "cell-based, human", "settings": "100 nM siRNA", "method": "Of the 62 genes shown above in TABLE 6, the 10 genes whose targeting by siRNA caused the largest percentage of cells to arrest in G1, listed below in TABLE 7, were transfected into HCT116DICER^ex5 cells in another experiment as follows.\nHCT116DICER^ex5 cells were transfected with […] miR-192 or 100 nM siRNA against luciferase, or 100 nM siRNA (one siRNA duplex of the pool of three) against the putative miR-192 target of interest, as indicated in TABLES 7 and 8. At 48 hours post transfection, cells were treated with nocodazole or aphicicolin for an additional 18 hours prior to FACS analysis. The results for the nocodazole treated cells (% of cells in G1) are provided in TABLE 7, and graphically illustrated in FIG. 3A. The results for the aphidicolin treated cells (% of cells in G2) are provided in TABLE 8 and graphically illustrated in FIG. 3B."}, "A549 cells": {"test_system": "A549 cells", "test": "miRNA and p21 expression by quantitative RT-PCR after adriamycin treatment", "assay_type": "cell-based", "method": "(§1) TOV21G cells and A549 cells were obtained from the American Type Culture Collection (ATCC). TOV21G p53 and A549 p53 matched pair cell lines were created by stably infecting TOV21G and A549 cells with a lentivirus encoding either H1-term or p53 shRNA. Cells were cultured in Dulbecco's Modified Eagles Medium, supplemented with 10% fetal bovine serum, streptomycin, penicillin and L-glutamine.\n(§2) MicroRNA expression was measured in the p53 matched cell lines (p53+/+ or p53−/− sh) either untreated or following treatment with various doses of the DNA damaging agent adriamycin (0, 10, 50 and 200 nM adriamycin). Forty-eight hours post treatment, RNA was harvested and the expression levels of miR-34a, miR-192, miR-215 and p21 were determined by quantitative RT-PCR with Taqman analysis carried out as described in Raymond C. K. et al., RNA 11: 1737-1744 (2005)."}, "TOV21G cells": {"test_system": "TOV21G cells", "test": "miRNA and p21 expression by quantitative RT-PCR after adriamycin treatment", "assay_type": "cell-based", "method": "as §1, §2"}, "[4]": {"test_system": "CDC7, LMNB2, MAD2L1 and CUL5", "test": "Western blot analysis", "assay_type": "cell-based, human", "settings": "HCT116DICER^ex5 cells, 10 nM, data not shown", "method": "HCT116DICER^ex5 cells were transfected with 10 nM siRNA against luciferase or 10 nM miR-192 or 10 nM miR-192 mutant, and lysates were prepared at 28 hours or 48 hours post-transfection. For immunoblotting, 30 μg of whole cell lysate extracted in a modified RIPA buffer (150 mM NaCl, 50 mM Tris pH 7.4, 1 mM EDTA, 1% NP-40, 0.1% SDS) was used per sample. CDC7, LMNB2, MAD2L1 and CUL5 were detected by Western blot using anti-CDC7 (sc-56275, Santa Cruz Biotechnology Inc.), anti-LMNB2 (MAB3536, Millipore), anti-MAD2L1 (ab55452, Abcam) and anti-CUL5 (Invitrogen) antibodies, and protein levels were compared to the level of β-actin expression as detected by an anti-β-actin antibody (Abcam)."}, "[5]": {"test_system": "3′ UTRs of the 18 candidate genes in U-2-OS cells", "test": "3′ UTR luciferase reporter analysis", "assay_type": "cell-based", "settings": "10 nM, 24 hours post-transfection", "excerpt": "In order to test whether miR-192 is regulating these genes through seed sequence-specific recognition of binding sites within their 3' UTRs, a series of reporter constructs were generated containing the entire natural 3' UTRs of the 18 candidate genes (BCL2, CDC7, CUL5, DLG5, DTL, ERCC3, HOXA10, HRH1, LMNB2, MAD2L1, MCM10, MIS12, MPHOSPH1, PIM1, PRPF38A, […]1, SEPT10 and SMARCB1) inserted downstream of a luciferase open reading frame (SwitchGear Genomics) to create 3' UTR luciferase reporter plasmids. U-2-OS cells were transfected first with 10 nM miR-192 or 10 nM miR-192 mutant, and subsequently transfected 4 to 6 hours later with these 3' UTR reporter plasmids. A renilla luciferase expression plasmid from dual luciferase system (Promega) was used as an internal control. Luciferase activity was measured at 24 hours post-transfection, and quantified relative to renilla luciferase activity."}, "HCT116DICER^ex5 cells [6]": {"test_system": "HCT116DICER^ex5 cells", "test": "Cell cycle distribution by propidium iodide FACS after miR-192 duplex transfection (untreated, nocodazole or aphidicolin)", "assay_type": "cell-based, human", "settings": "for % Cells with 2N (G1/S) / % Cells with 4N (G2/M): 10 nM duplex, 66 hours after transfection", "method": "At 48 hours post transfection, cells were left untreated, treated with nocodazole (100 ng/mL, Sigma-Aldrich), or treated with aphidicolin (2 μg/mL, Sigma-Aldrich) for an additional 18 hours before harvesting. The cells were then trypsinized, collected, fixed and stained with a propidium iodide solution. BrdU-labeling was performed according to the manufacturer's instructions (BD-Pharmigen). For phospho-histone H3 analysis, cells were fixed and permeabilized with IPF buffer (100 mM PIPES pH 6.8, 10 mM EDTA, 1 mM MgCl2, 0.2% Triton X-100, 4% formaldehyde) and stained with propidium iodide and anti-phospho-histone H3 antibody conjugated to Alexa-488 (Cell Signaling Technology). The cells were analyzed using a FACSCalibur flow cytometer (Beacton Dickinson) and FlowJo software (Tree Star, Inc.)."}},
  "note": "d = 2'-deoxy (DNA); r = 2'-OH (RNA)",
  "data": [
    {"compound": "Luc siRNA: Control siRNA targeting luciferase, SEQ ID NOS: 11/12 (chain 1 UCGAAGUAUUCCGCGUACGTT; chain 2 CGUACGCGGAAUACUUCGATT; sugars from the 5' end r19 d2, backbone not given here) [reference compound]", "values": [
      {"measurement": "% G2 (Avg), Aphidicholin+", "setting": "HCT116DICER^ex5 cells [1]; aphidicolin 2 μg/mL 18 h", "result": 18.9, "unit": "%"},
      {"measurement": "% G1 (Avg), Nocodazole+", "setting": "HCT116DICER^ex5 cells [1]; nocodazole 100 ng/mL 18 h", "result": 13.8, "unit": "%"},
      {"measurement": "% G1", "setting": "HCT116DICER^ex5 cells [2]; after aphidicolin treatment", "result": 66.3, "unit": "%"},
      {"measurement": "% G2", "setting": "HCT116DICER^ex5 cells [2]; after aphidicolin treatment", "result": 15.6, "unit": "%"},
      {"measurement": "% G1", "setting": "HCT116DICER^ex5 cells [2]; nocodazole", "result": 11.7, "unit": "%"},
      {"measurement": "% G2", "setting": "HCT116DICER^ex5 cells [2]; nocodazole", "result": 83.8, "unit": "%"},
      {"measurement": "% Cells in G2", "setting": "HCT116DICER^ex5 cells [3]; aphidicolin 18 hours from 48 hours post transfection", "result": 19.2, "unit": "%"},
      {"measurement": "% Cells in G1", "setting": "HCT116DICER^ex5 cells [3]; nocodazole 18 hours from 48 hours post transfection", "result": 18.5, "unit": "%"}
    ]},
    {"compound": "COc1cccc2c1C(=O)c1c(O)c3c(c(O)c1C2=O)C[C@@](O)(C(=O)CO)C[C@@H]3O[C@H]1C[C@H](N)[C@H](O)[C@H](C)O1", "note": "[adriamycin]", "values": [
      {"measurement": "miR-192, miR-215 and miR-34a expression", "setting": "A549 cells; A549 cells, adriamycin 10, 50 or 200 nM, 48 hours post treatment", "result": "up-regulation"},
      {"measurement": "expression of miR-192 and miR-215", "setting": "A549 cells; p53 deficient A549 cells, adriamycin 10, 50 or 200 nM", "result": "not"},
      {"measurement": "p21 expression", "setting": "A549 cells; p53 knockdown A549 cells", "result": "lack of p21 induction"},
      {"measurement": "expression of miR-192 and miR-215", "setting": "A549 cells; wild type (p53+/+) A549 cells, adriamycin 10, 50 or 200 nM", "result": "upregulated in a dose dependent manner"},
      {"measurement": "miR-192, miR-215 and miR-34a expression", "setting": "TOV21G cells; TOV21G cells, adriamycin 10, 50 or 200 nM, 48 hours post treatment", "result": "up-regulation"},
      {"measurement": "expression of miR-192 and miR-215", "setting": "TOV21G cells; p53 deficient TOV21G cells, adriamycin 10, 50 or 200 nM", "result": "not"},
      {"measurement": "p21 expression", "setting": "TOV21G cells; p53 knockdown TOV21G cells", "result": "lack of p21 induction"},
      {"measurement": "expression of miR-192 and miR-215", "setting": "TOV21G cells; wild type (p53+/+) TOV21G cells, adriamycin 10, 50 or 200 nM", "result": "upregulated in a dose dependent manner"}
    ]},
    {"compound": "miR-192 mutant: Seed region mutant miR-192 duplex, guide CUGCACUAUGAAUUGACAGCC (SEQ ID NO:8), passenger SEQ ID NO:9 (sense CUGUCAAUUCAUAGUGCUGAU; listed as RNA, chemistry not given here) [reference compound]", "values": [
      {"measurement": "protein level", "setting": "[4]", "result": "not"},
      {"measurement": "regulation of 3′ UTR luciferase reporters of the 18 genes", "setting": "[5]", "result": "not"},
      {"measurement": "% Cells with 2N (G1/S)", "setting": "HCT116DICER^ex5 cells [6]; aphidicolin 2 μg/mL 18 hours", "result": 66.5, "unit": "%"},
      {"measurement": "% Cells with 4N (G2/M)", "setting": "HCT116DICER^ex5 cells [6]; aphidicolin 2 μg/mL 18 hours", "result": 16.1, "unit": "%"},
      {"measurement": "% Cells with 2N (G1/S)", "setting": "HCT116DICER^ex5 cells [6]; nocodazole 100 ng/mL 18 hours", "result": 17, "unit": "%"},
      {"measurement": "% Cells with 4N (G2/M)", "setting": "HCT116DICER^ex5 cells [6]; nocodazole 100 ng/mL 18 hours", "result": 66.3, "unit": "%"},
      {"measurement": "accumulation in the G2/M phase", "setting": "HCT116DICER^ex5 cells [6]; treated with aphidicolin", "result": "did not"},
      {"measurement": "% Cells with 2N (G1/S)", "setting": "HCT116DICER^ex5 cells [6]; untreated", "result": 49.9, "unit": "%"},
      {"measurement": "% Cells with 4N (G2/M)", "setting": "HCT116DICER^ex5 cells [6]; untreated", "result": 30.8, "unit": "%"}
    ]}
  ]
}
